Measured values as given in patent US10738028B2, “Spiro three-membered ring, spiro five-membered ring peptide deformylase inhibitor and use thereof in antibacteria and anti-tumor” (priority 2016, dated 2020).

Key:
Assay type in all cases: cell-based
[1] = tested on: HCT-116 colorectal cancer cell line; test: CCK-8 proliferation inhibition; details: concentration of 30 μM, 72 hours, CCK-8
How it was run: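 2000 cells/well, McCoy's 5A + 10% newborn bovine serum; overnight attach, 37° C./5% CO2. Cpd from DMSO stock diluted in medium, 72 h. Readout: CCK-8 (1:10). Ctrl 1‰ DMSO.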

[2] = tested on: BEL-7402 liver cancer cell line; test: CCK-8 proliferation inhibition; details: concentration of 30 μM
How it was run: (§1)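 Plating at 2000 cells/well, then incubation overnight at 37° C. Next, a range of compound concentrations for 72 hours (control 1‰ DMSO). Finally, medium decanted and CCK-8 diluted 1:10 added.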

[3] = tested on: A549 lung cancer cell line; test: CCK-8 proliferation inhibition; details: concentration of 30 μM
How it was run: as §1

[4] = tested on: MGC-803 gastric cancer cell line; test: CCK-8 proliferation inhibition; details: Homo sapiens, MGC-803, 72 h, concentration of 30 μM
How it was run: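 CCK-8 read-out after 72 h drug exposure; 2000 cells/well, overnight pre-culture (37° C, 5% CO2); vehicle 1‰ DMSO. Media: PC3 F12; MGC-803/Jurkat 1640; MCF-7 DMEM high glucose; all +10% newborn bovine serum, 1% antibiotics.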

[5] = tested on: Enterococcus faecium (EFM); test: MIC, two-fold agar dilution (CLSI), clinical isolates
How it was run: (§2)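 Susceptibility was tested using CLSI two-fold agar dilution against the strains examined.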

[6] = tested on: methicillin-resistant Staphylococcus aureus (MRSA); test: as above
How it was run: as §2

[7] = tested on: methicillin-sensitive Staphylococcus epidermidis (MSSE); test: as above
How it was run: as §2

[8] = tested on: Escherichia coli (including ESBLs, non-ESBLs); test: as above
How it was run: as §2

[9] = tested on: Moraxella catarrhalis (BCA); test: as above
How it was run: as §2

[10] = tested on: methicillin-sensitive Staphylococcus aureus (MSSA); test: as above
How it was run: as §2

[11] = tested on: Enterococcus faecalis (EFA); test: as above
How it was run: as §2

[12] = tested on: Streptococcus pneoumoniae (SPN); test: as above
How it was run: as §2

[13] = tested on: methicillin-resistant Staphylococcus epidermidis (MRSE); test: as above
How it was run: as §2

`O=C(C[C@@H](CC1CCCC1)C(=O)N1CC2(CC2)C[C@H]1C(=O)Nc1ccno1)NO` [Example 70, (S)-5-((R)-2-(cyclopentylmethyl)-4-(hydroxyamino)-4-oxobutyl)-N-(isoxazol-5-yl)-5-spiro[2.4]heptane-6-carboxamide] gave an inhibition at 30 µM ([1]; Homo sapiens, HCT-116, 72 h, read-out: HCT116 inhibition rate/%) greater than 50%, an HCT116 inhibition rate/% ([1]; 30 µM) of 64% and an inhibition at 30 µM ([2]; Homo sapiens, Bel-7402, 72 h) greater than 50%. The “Inhibition of proliferation, Liver cancer BEL-7402” value ([2]; 72 hours, 30 µM) was 62%, the inhibition at 30 µM ([3]; Homo sapiens, A549, 72 h) was greater than 50% and the “Inhibition of proliferation, Lung cancer A549” value ([3]; 72 hours, 30 µM) was 54%. For the same compound, the inhibition at 30 µM [4] was 50%, the Anti-bacterial activity (MIC) ([5]; strain EFM 15-1) was 32 µg/mL and the Anti-bacterial activity (MIC) ([5]; strain EFM 15-2) was 32 µg/mL. The Anti-bacterial activity (MIC) ([5]; strain EFM 15-3) was 32 µg/mL, the Anti-bacterial activity (MIC) ([5]; strain EFM 15-4) was 1 µg/mL and the Anti-bacterial activity (MIC) ([5]; strain EFM 15-5) was 0.2 µg/mL. It also gave an Anti-bacterial activity (MIC) ([5]; strain EFM 15-6) of 2 µg/mL, an Anti-bacterial activity (MIC), strain MRSA 15-1 ([6]; clinical isolate MRSA 15-1) of 0.5 µg/mL and an Anti-bacterial activity (MIC), strain MRSA 15-2 ([6]; clinical isolate MRSA 15-2) of 1 µg/mL. The Anti-bacterial activity (MIC), strain MRSA 15-3 ([6]; clinical isolate MRSA 15-3) was 0.5 µg/mL, the Anti-bacterial activity (MIC), strain MRSA 15-4 ([6]; clinical isolate MRSA 15-4) was 1 µg/mL and the Anti-bacterial activity (MIC), strain MSSE 15-3 ([7]; clinical isolate MSSE 15-3) was 0.5 µg/mL. For the same compound, the Anti-bacterial activity (MIC), strain MSSE 15-4 ([7]; clinical isolate MSSE 15-4) was 1 µg/mL, the Anti-bacterial activity (MIC), strain MSSE 15-5 ([7]; clinical isolate MSSE 15-5) was 1 µg/mL and the Anti-bacterial activity (MIC), strain MSSE 15-6 ([7]; clinical isolate MSSE 15-6) was 0.25 µg/mL. It also gave an Anti-bacterial activity (MIC), strain ECO+ 15-1 ([8]; clinical isolate ECO+ 15-1) of 16 µg/mL, an Anti-bacterial activity (MIC), strain ECO+ 15-2 ([8]; clinical isolate ECO+ 15-2) of 32 µg/mL and an Anti-bacterial activity (MIC), strain ECO+ 15-3 ([8]; clinical isolate ECO+ 15-3) of 32 µg/mL. For the same compound, the Anti-bacterial activity (MIC), strain ECO+ 15-4 ([8]; clinical isolate ECO+ 15-4) was 16 µg/mL, the Anti-bacterial activity (MIC), strain ECO− 15-1 ([8]; clinical isolate ECO− 15-1) was 16 µg/mL and the Anti-bacterial activity (MIC), strain ECO− 15-2 ([8]; clinical isolate ECO− 15-2) was 32 µg/mL. It also gave an Anti-bacterial activity (MIC), strain ECO− 15-3 ([8]; clinical isolate ECO− 15-3) of 32 µg/mL, an Anti-bacterial activity (MIC), strain ECO− 15-4 ([8]; clinical isolate ECO− 15-4) of 16 µg/mL and an Anti-bacterial activity (MIC) ([9]; strain BCA 14-1) of 1 µg/mL. The Anti-bacterial activity (MIC) ([9]; strain BCA 14-4) was 2 µg/mL, the Anti-bacterial activity (MIC) ([9]; strain BCA 14-5) was 2 µg/mL and the Anti-bacterial activity (MIC) ([9]; strain BCA 14-6) was 2 µg/mL. For the same compound, the Anti-bacterial activity (MIC) ([9]; strain BCA 14-7) was 4 µg/mL, the Anti-bacterial activity (MIC) ([9]; strain BCA 14-8) was 1 µg/mL and the Anti-bacterial activity (MIC) ([9]; strain BCA 14-10) was 1 µg/mL. The Anti-bacterial activity (MIC), strain MSSA 15-3 ([10]; clinical isolate MSSA 15-3) was 2 µg/mL, the Anti-bacterial activity (MIC), strain MSSA 15-4 ([10]; clinical isolate MSSA 15-4) was 0.5 µg/mL and the Anti-bacterial activity (MIC), strain MSSA 15-5 ([10]; clinical isolate MSSA 15-5) was 0.25 µg/mL. It also gave an Anti-bacterial activity (MIC), strain MSSA 15-6 ([10]; clinical isolate MSSA 15-6) of 16 µg/mL, an Anti-bacterial activity (MIC) ([11]; strain EFA 15-1) of 32 µg/mL and an Anti-bacterial activity (MIC) ([11]; strain EFA 15-2) of 32 µg/mL. For the same compound, the Anti-bacterial activity (MIC) ([11]; strain EFA 15-3) was 32 µg/mL, the Anti-bacterial activity (MIC) ([11]; strain EFA 15-4) was 32 µg/mL and the Anti-bacterial activity (MIC) ([11]; strain EFA 15-5) was 32 µg/mL. It also gave an Anti-bacterial activity (MIC) ([11]; strain EFA 15-6) of 32 µg/mL, an Anti-bacterial activity (MIC) ([11]; strain EFA 15-9) of 1 µg/mL and an Anti-bacterial activity (MIC) ([12]; strain SPN 16-2) of 0.5 µg/mL. For the same compound, the Anti-bacterial activity (MIC) ([12]; strain SPN 16-4) was 0.25 µg/mL, the Anti-bacterial activity (MIC), strain MRSE 15-1 ([13]; clinical isolate MRSE 15-1) was 0.5 µg/mL and the Anti-bacterial activity (MIC), strain MRSE 15-2 ([13]; clinical isolate MRSE 15-2) was 2 µg/mL. For the same compound, the Anti-bacterial activity (MIC), strain MRSE 15-3 ([13]; clinical isolate MRSE 15-3) was 2 µg/mL and the Anti-bacterial activity (MIC), strain MRSE 15-7 ([13]; clinical isolate MRSE 15-7) was 2 µg/mL.
